Measurements published in patent US20110177970A1, “METHODS FOR PREDICTING OR MONITORING WHETHER A PATIENT AFFECTED BY A CANCER IS RESPONSIVE TO A TREATMENT WITH A MOLECULE OF THE TAXOID FAMILY” (Inserm (Institut National de la Sante et de la Recherche …, priority 2008, published 2011).

Assays:
[1] = tested on: docetaxel resistant cells; conditions: cited from earlier work
[2] = tested on: 3B1 clone (clonally-derived IGR-CaP1 cells); assay: WST1 cell proliferation assay, cytotoxic effect of docetaxel, clone 3B1; assay type: cell-based, human
Excerpt: (§1) The data represent the mean of three different experiments, the error bars represent the SEM.
(§2) Several clonally-derived cells were obtained from the parental IGR-CaP1 cells by limit dilutions.

[3] = tested on: 3A11 clone (clonally-derived IGR-CaP1 cells); assay: WST1 cell proliferation assay, cytotoxic effect of docetaxel, clone 3A11; assay type: cell-based, human
Excerpt: as §1, §2

[4] = tested on: breast cancer metastatic tumours; conditions: cited from earlier work
[5] = tested on: patients treated with docetaxel; conditions: from the beginning or in a secondary way; cited from earlier work
[6] = tested on: parental IGR-CaP1 cells; assay: WST1 cell proliferation assay, cytotoxic effect of docetaxel, parental cells; assay type: cell-based, human; conditions: docetaxel 1.25 nM to 50 nM, 72 h
Excerpt: as §1, §2

| SMILES | apoptosis [1] | expression of clusterin [1] | effect on proliferation compared to parental IGR-CaP1 cells ([2]; 3B1 clone vs parental, p<0.001) | cell proliferation (WST1) ([2]; 3B1 clone, docetaxel 1.25 nM to 50 nM, 72 h) | effect on proliferation compared to parental IGR-CaP1 cells ([3]; 3A11 clone vs parental, p<0.001) | cell proliferation (WST1) ([3]; 3A11 clone, docetaxel 1.25 nM to 50 nM, 72 h) | metastatic tumours that respond [4] [%] | patients who develop a resistance to the chemotherapy [5] | cell proliferation (WST1) [6] |
| --- | --- | --- | --- | --- | --- | --- | --- | --- | --- |
| Oc1ccc(C=Cc2cc(O)cc(O)c2)cc1 [resveratrol] | increase of apoptosis | decreased expression of clusterin |  |  |  |  |  |  |  |
| CC(=O)O[C@@]12CO[C@@H]1C[C@H](O)[C@@]1(C)C(=O)[C@H](O)C3=C(C)[C@@H](OC(=O)[C@H](O)[C@@H](NC(=O)OC(C)(C)C)c4ccccc4)C[C@@](O)([C@@H](OC(=O)c4ccccc4)[C@H]21)C3(C)C [docetaxel] |  |  | significantly lower extent | decreased cell proliferation in a dose-dependent manner | significantly lower extent | decreased cell proliferation in a dose-dependent manner | 30 to 50 | almost half of the patients | decreased cell proliferation in a dose-dependent manner |
